Results on 5 molecules are retold here after paper PMC10951269, “5-HT_FAsTR: a versatile, label-free, high-throughput, fluorescence-based microplate assay to quantify serotonin transport and release” (Scientific Reports, 2024).

The test system of data set [1] is hSERT mutant I172M. Particulars: radiotracer assay; 10 µM [3H]5-HT; N = 3. As for the experimental part: The uptake was terminated by washing the cells with ice-cold PBSCM, 50 µl Microscint (Perkin Elmer) was added and radioactivity was counted in a TopCounter microplate scintillation counter approximately one hour after microscint addition. The raw data was fitted to a non-linear fit in GraphPad Prism ([inhibitor] vs response (three parameters)) and normalized to the obtained top and bottom plateau as follows: rawdata-bottomplateau/topplateau-bottomplateau . The same non-linear fit of the normalized data was used to calculate logIC50 and IC50 values.

Data set [2] has as its target T1, hSERT (Homo sapiens, UniProt P31645). Nature of the data set: 5-HT_FAsTR fluorescence efflux assay.
The subject of data set [3] is hSERT mutant I172M. Conditions: fluorescence assay; 10 µM 5-HT; N = 3. How it is done: (§1) For the uptake inhibition assay determining IC50 values, the pre-incubation solutions contained 12 increasing concentrations of an hSERT or OCT2 inhibitor. […] The change in fluorescence was determined 10 min after adding the incubation solution. […] The raw data was fitted to a non-linear fit in GraphPad Prism ([inhibitor] vs response (three parameters) for hSERT data and [inhibitor] vs response – variable slope (four parameters) for hOCT2 data) and normalized to the obtained top and bottom plateau as follows: rawdata-bottomplateau/topplateau-bottomplateau . The same non-linear fit of the normalized data was used to calculate logIC50 and IC50 values. IC50 values were converted to pKi values using the Cheng-Prusoff equation[33]. pKi=pIC50/1+[S]/Km

The target of data set [4] is T2, hOCT2 (Homo sapiens, UniProt O15244).
T2 sequence (O15244 1-555): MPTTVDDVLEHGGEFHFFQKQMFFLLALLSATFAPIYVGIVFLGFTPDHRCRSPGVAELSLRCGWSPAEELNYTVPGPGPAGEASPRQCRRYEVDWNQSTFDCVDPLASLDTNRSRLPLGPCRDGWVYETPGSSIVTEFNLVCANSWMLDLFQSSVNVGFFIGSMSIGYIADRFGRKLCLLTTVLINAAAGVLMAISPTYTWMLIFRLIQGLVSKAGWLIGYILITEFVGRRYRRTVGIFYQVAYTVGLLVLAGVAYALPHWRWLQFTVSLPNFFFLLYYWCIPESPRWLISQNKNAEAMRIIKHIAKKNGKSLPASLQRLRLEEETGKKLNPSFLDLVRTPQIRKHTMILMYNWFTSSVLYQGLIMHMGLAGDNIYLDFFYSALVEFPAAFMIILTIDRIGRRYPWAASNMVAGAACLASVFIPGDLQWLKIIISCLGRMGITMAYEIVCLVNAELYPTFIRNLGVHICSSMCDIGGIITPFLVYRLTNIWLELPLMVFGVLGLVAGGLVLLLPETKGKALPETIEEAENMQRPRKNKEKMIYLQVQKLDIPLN
Nature of the data set: 5-HT_FAsTR fluorescence uptake inhibition assay, hOCT2. Format: cell-based. Particulars: corresponding to the pKi. As for the experimental part: as §1

The target in data set [5] is T1, hSERT. Type of data set: cell-based. More on the design: expressed in transfected cells; host or cells: HEK293MSR cells stably expressing cytoplasmic iSeroSnFR. Particulars: 5 µM inhibitor, control experiment. An excerpt: Data were fitted in Graphpad Prism to the in-built model for Michaelis–Menten kinetics using robust non-linear regression to calculate Km and Vmax.

Data set [6] concerns NCCc1c[nH]c2ccc(O)cc12. The data set is described as follows: cells, lysate or membranes. Conditions: other: HEK293MSR_iSeroSnFR cells with hSERT, 10 min, N = 7, pH 7.4.
In data set [7] the test system is iSeroSnFR. The data set is described as follows: Dose-response of 5-HT binding to extracellular membrane-tethered iSeroSnFR. Conditions: HEK293MSR cells, not saturated at 10 mM 5-HT. Format: cell-based. An excerpt: Error bars represent SEM.
(2 pictures or pasted objects on this page, not shown here)

Substrate in data set [8]: NCCc1c[nH]c2ccc(O)cc12
Nature of the data set: cells, lysate or membranes. Particulars: other: hOCT2-transfected cells; non-specific uptake determined with imipramine; N = 3; pH 7.4.

Like-named read-outs stand apart in the source and are kept apart here.

In general, EC50 refers to the concentration at which the effect is half-maximal. One may read the Ki as a measure of affinity in units of concentration, obtained from inhibition or displacement. By Km is commonly meant the substrate concentration at which the rate is half of its maximum.

T1 sequence (P31645 whole entry): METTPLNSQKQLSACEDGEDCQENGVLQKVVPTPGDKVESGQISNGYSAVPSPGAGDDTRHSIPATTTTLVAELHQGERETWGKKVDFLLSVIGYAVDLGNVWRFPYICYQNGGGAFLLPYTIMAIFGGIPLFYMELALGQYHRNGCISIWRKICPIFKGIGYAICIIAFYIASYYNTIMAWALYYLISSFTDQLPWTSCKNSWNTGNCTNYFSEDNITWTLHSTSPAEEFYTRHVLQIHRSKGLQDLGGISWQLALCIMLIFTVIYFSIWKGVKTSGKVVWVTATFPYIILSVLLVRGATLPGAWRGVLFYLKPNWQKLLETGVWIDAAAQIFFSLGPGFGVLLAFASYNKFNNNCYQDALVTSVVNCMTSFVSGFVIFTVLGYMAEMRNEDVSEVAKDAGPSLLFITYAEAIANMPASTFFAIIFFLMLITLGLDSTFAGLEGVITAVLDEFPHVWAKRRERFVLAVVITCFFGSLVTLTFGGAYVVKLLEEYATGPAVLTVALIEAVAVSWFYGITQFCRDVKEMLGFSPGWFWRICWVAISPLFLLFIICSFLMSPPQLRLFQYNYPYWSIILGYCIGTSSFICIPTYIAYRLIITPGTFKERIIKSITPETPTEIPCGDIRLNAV

For `CNC(C)Cc1ccc2c(c1)OCO2` (stereo not drawn) [MDMA], the “fold decrease in potency, hSERT I172M compared to wild type (IC50 ratio)” value in data set [1] and in data set [3] was “did not show any change” each time. Also, the EC50 in data set [2] was found to be 6.22 ± 1.62 µM. Further, the “fluorescence change ± SEM (drug-induced efflux rate)” value in data set [2] (hSERT not present (empty vector), preloaded with 5-HT, N = 3) is listed as 0.06 ± 0.01 %/minute. In addition, the “maximum fluorescence change ± SEM (drug-induced efflux rate)” value in data set [2] (hSERT-transfected cells preloaded with 10 µM 5-HT, N = 6) was 0.66 ± 0.13 %/minute. Besides, in data set [2] (hSERT-transfected cells vs background), the “release of 5-HT relative to background levels from passive diffusion” value is given as “at least 11 fold”.

Turning to `C[Se+](C)CCCN1c2ccccc2CCc2ccc(Cl)cc21` [MJ1-53], the Ki in data set [4] was determined as 0.164 µM. In data set [5], the “effect of blocking the serotonin transporter on 5-HT uptake (fluorescence intensity)” value is given as “abolishes 5-HT uptake”.

Regarding hSERT (Homo sapiens), the Km worked out at 1.25 ± 0.48 µM in data set [6] (non-specific uptake determined with MJ1-53) and 1.79 ± 0.19 µM in data set [6] (non-specific uptake determined with S-Citalopram).

In data set [7], `NCCc1c[nH]c2ccc(O)cc12` [5-HT, 5-hydroxytryptamine] displayed an EC50 of no less than 1520 µM.

B1: hOCT2 (Homo sapiens) (protein)
chain: T2 sequence (O15244 1-555)
Turning to B1, in data set [8], the Michaelis constant (Km) is reported as 183.6 ± 65.18 µM.
